Data as given in patent publication US6127519A, “Calcitonin derivatives” (Tsumura & Co., priority 1990, dated 2000).
“And” between values parts separate entries of the source, which are not always exact repeats. Equal values may be shown once. Bridge positions count the residues as written; N and C are the ends. Ends that are not written are not given here. Peptide text beside a SMILES is read from it.

System: calcium concentration in the serum
Test: Test 1: reduction of calcium level in serum after tail vein administration to rats
Type: in vivo, rats of the Wistar strain
Conditions: 1 ml/kg tail vein, female Wistar rats
Summary of the method: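 Female Wistar rats, six weeks old, were assigned in groups of 4 and given the test peptides through the tail vein at 1 ml/kg. The peptides were dissolved in 1% aqueous sodium acetate (pH 4,0) containing 0.1% BSA. Blood (0.3 ml) was drawn from the neck vein immediately before dosing and at set times afterward. Serum was separated by centrifuging at 3500 rpm for 20 minutes. Calcium was measured on a TBA-380 analyzer with a Wako o-cpc kit, and the percentage reduction in serum calcium was calculated.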

[1] = concentration 830 ng/ml, 0 hour (just before administration)
[2] = concentration 830 ng/ml, 1 hour
[3] = concentration 830 ng/ml, 2 hours
[4] = concentration 830 ng/ml, 4 hours
[5] = concentration 830 ng/ml, 6 hours
[6] = concentration 83 ng/ml, 0 hour (just before administration)
[7] = concentration 83 ng/ml, 2 hours
[8] = concentration 83 ng/ml, 4 hours
[9] = concentration 83 ng/ml, 6 hours
[10] = concentration 166 ng/ml, 0 hour (just before administration)
[11] = concentration 166 ng/ml, 1 hour
[12] = concentration 166 ng/ml, 2 hours
[13] = concentration 166 ng/ml, 4 hours
[14] = concentration 166 ng/ml, 6 hours

CC[C@H](C)[C@H](NC(=O)[C@H](C)NC(=O)[C@@H](NC(=O)[C@H](CCC(N)=O)NC(=O)[C@@H]1CCCN1C(=O)[C@H](Cc1ccc(O)cc1)NC(=O)[C@H](CC(C)C)NC(=O)[C@H](CCCCN)NC(=O)[C@H](Cc1c[nH]cn1)NC(=O)[C@H](CC(C)C)NC(=O)[C@H](CCC(=O)O)NC(=O)[C@H](CCC(N)=O)NC(=O)[C@H](CO)NC(=O)[C@H](CC(C)C)NC(=O)[C@H](CCCCN)NC(=O)CNC(=O)[C@H](CC(C)C)NC(=O)[C@H](CCSC)NC(=O)[C@@H]1CSSC[C@H](N)C(=O)NCC(=O)N[C@@H](CC(N)=O)C(=O)N[C@@H](CC(C)C)C(=O)N[C@@H](CO)C(=O)N[C@@H]([C@@H](C)O)C(=O)N1)[C@@H](C)O)C(=O)NCC(=O)N[C@@H](CO)C(=O)NCC(=O)N[C@H](C(=O)N1CCC[C@H]1C(N)=O)[C@@H](C)O [Peptide No. 7] (H-CGNLSTCMLGKLSQELHKLYPQTAIGSGTP-NH2; disulfide 1-7)
Serum calcium level as percent of pre-dose baseline [1]: 100.0% | Serum calcium level as percent of pre-dose baseline [2]: 81.9% | Serum calcium level as percent of pre-dose baseline [3]: 91.7% | Serum calcium level as percent of pre-dose baseline [4]: 97.4% | Serum calcium level as percent of pre-dose baseline [5]: 100.0%

CC[C@H](C)[C@H](NC(=O)[C@H](C)NC(=O)[C@@H](NC(=O)[C@H](CCC(N)=O)NC(=O)[C@@H]1CCCN1C(=O)[C@H](Cc1ccc(O)cc1)NC(=O)[C@@H](NC(=O)[C@H](CCC(N)=O)NC(=O)[C@H](CC(C)C)NC(=O)[C@H](CCCCN)NC(=O)[C@H](Cc1c[nH]cn1)NC(=O)[C@H](CC(C)C)NC(=O)[C@H](CCC(=O)O)NC(=O)[C@H](CCC(N)=O)NC(=O)[C@H](CO)NC(=O)[C@H](CC(C)C)NC(=O)[C@H](CCCCN)NC(=O)CNC(=O)[C@H](CC(C)C)NC(=O)[C@H](CC(C)C)NC(=O)[C@@H]1CCCCNC(=O)C[C@H](NC(C)=O)C(=O)N[C@@H](CC(N)=O)C(=O)N[C@@H](CC(C)C)C(=O)N[C@@H](CO)C(=O)N[C@@H]([C@@H](C)O)C(=O)N1)[C@@H](C)O)[C@@H](C)O)C(=O)NCC(=O)N[C@H](C(=O)NCC(=O)N[C@@H](C)C(=O)N1CCC[C@H]1C(N)=O)C(C)C [Peptide No. 25] (Ac-DNLSTKLLGKLSQELHKLQTYPQTAIGVGAP-NH2; lactam 1-6)
Serum calcium level as percent of pre-dose baseline [6]: 100.0% | Serum calcium level as percent of pre-dose baseline (concentration 83 ng/ml, 1 hour): 76.9% | Serum calcium level as percent of pre-dose baseline [7]: 67.6% | Serum calcium level as percent of pre-dose baseline [8]: 66.7% | Serum calcium level as percent of pre-dose baseline [9]: 71.3% | Serum calcium level as percent of pre-dose baseline [1]: 100.0% | Serum calcium level as percent of pre-dose baseline [2]: 73.4% | Serum calcium level as percent of pre-dose baseline [3]: 64.3% | Serum calcium level as percent of pre-dose baseline [4]: 51.8% | Serum calcium level as percent of pre-dose baseline [5]: 44.3%

CC[C@H](C)[C@H](NC(=O)[C@H](C)NC(=O)[C@@H](NC(=O)[C@H](CCC(N)=O)NC(=O)[C@@H]1CCCN1C(=O)[C@H](Cc1ccc(O)cc1)NC(=O)[C@@H](NC(=O)[C@H](CCC(N)=O)NC(=O)[C@H](CC(C)C)NC(=O)[C@H](CCCCN)NC(=O)[C@H](Cc1c[nH]cn1)NC(=O)[C@H](CC(C)C)NC(=O)[C@H](CCC(=O)O)NC(=O)[C@H](CCC(N)=O)NC(=O)[C@H](CO)NC(=O)[C@H](CC(C)C)NC(=O)[C@H](CCCCN)NC(=O)CNC(=O)[C@H](CC(C)C)NC(=O)[C@H](CCSC)NC(=O)[C@@H]1CSSC[C@H](N)C(=O)NCC(=O)N[C@@H](CC(N)=O)C(=O)N[C@@H](CC(C)C)C(=O)N[C@@H](CO)C(=O)N[C@@H]([C@@H](C)O)C(=O)N1)[C@@H](C)O)[C@@H](C)O)C(=O)NCC(=O)N[C@H](C(=O)NCC(=O)N[C@@H](C)C(=O)N1CCC[C@H]1C(N)=O)C(C)C [Peptide No. 1] (H-CGNLSTCMLGKLSQELHKLQTYPQTAIGVGAP-NH2; disulfide 1-7)
Serum calcium level as percent of pre-dose baseline [6]: 100.0% | Serum calcium level as percent of pre-dose baseline (concentration 83 ng/ml, 1 hour): 74.3% | Serum calcium level as percent of pre-dose baseline [7]: 81.1% | Serum calcium level as percent of pre-dose baseline [8]: 86.9% | Serum calcium level as percent of pre-dose baseline [9]: 83.5% | Serum calcium level as percent of pre-dose baseline [1]: 100.0% | Serum calcium level as percent of pre-dose baseline [2]: 85.6% and 74.3% and 70.2% | Serum calcium level as percent of pre-dose baseline [3]: 81.6% and 68.4% and 64.4% | Serum calcium level as percent of pre-dose baseline [4]: 76.8% and 68.0% and 60.6% | Serum calcium level as percent of pre-dose baseline [5]: 88.5% and 84.8% and 78.3%

CC[C@H](C)[C@H](NC(=O)[C@H](C)NC(=O)[C@@H](NC(=O)[C@H](CCC(N)=O)NC(=O)[C@@H]1CCCN1C(=O)[C@H](Cc1ccc(O)cc1)NC(=O)[C@@H](NC(=O)[C@H](CCC(N)=O)NC(=O)[C@H](CCCCN)NC(=O)[C@H](Cc1c[nH]cn1)NC(=O)[C@H](CC(C)C)NC(=O)[C@H](CCC(=O)O)NC(=O)[C@H](CCC(N)=O)NC(=O)[C@H](CO)NC(=O)[C@H](CC(C)C)NC(=O)[C@H](CCCCN)NC(=O)CNC(=O)[C@H](CC(C)C)NC(=O)[C@H](CCSC)NC(=O)[C@@H]1CSSC[C@H](N)C(=O)NCC(=O)N[C@@H](CC(N)=O)C(=O)N[C@@H](CC(C)C)C(=O)N[C@@H](CO)C(=O)N[C@@H]([C@@H](C)O)C(=O)N1)[C@@H](C)O)[C@@H](C)O)C(=O)NCC(=O)N[C@@H](CO)C(=O)NCC(=O)N[C@H](C(=O)N1CCC[C@H]1C(N)=O)[C@@H](C)O [Peptide No. 6] (H-CGNLSTCMLGKLSQELHKQTYPQTAIGSGTP-NH2; disulfide 1-7)
Serum calcium level as percent of pre-dose baseline [1]: 100.0% | Serum calcium level as percent of pre-dose baseline [2]: 73.1% | Serum calcium level as percent of pre-dose baseline [3]: 68.1% | Serum calcium level as percent of pre-dose baseline [4]: 74.6% | Serum calcium level as percent of pre-dose baseline [5]: 92.1%

CC[C@H](C)[C@H](NC(=O)[C@H](C)NC(=O)[C@@H](NC(=O)[C@H](CCC(N)=O)NC(=O)[C@@H]1CCCN1C(=O)[C@H](Cc1ccc(O)cc1)NC(=O)[C@@H](NC(=O)[C@H](CCC(N)=O)NC(=O)[C@H](CC(C)C)NC(=O)[C@H](CCCCN)NC(=O)[C@H](Cc1c[nH]cn1)NC(=O)[C@H](CC(C)C)NC(=O)[C@H](CCC(=O)O)NC(=O)[C@H](CCC(N)=O)NC(=O)[C@H](CO)NC(=O)[C@H](CC(C)C)NC(=O)[C@H](CCCCN)NC(=O)CNC(=O)[C@H](CC(C)C)NC(=O)[C@@H](NC(=O)[C@@H]1CSSC[C@H](N)C(=O)NCC(=O)N[C@@H](CC(N)=O)C(=O)N[C@@H](CC(C)C)C(=O)N[C@@H](CO)C(=O)N[C@@H]([C@@H](C)O)C(=O)N1)C(C)C)[C@@H](C)O)[C@@H](C)O)C(=O)NCC(=O)N[C@H](C(=O)NCC(=O)N[C@@H](C)C(=O)N1CCC[C@H]1C(N)=O)C(C)C [Peptide No. 11] (H-CGNLSTCVLGKLSQELHKLQTYPQTAIGVGAP-NH2; disulfide 1-7)
Serum calcium level as percent of pre-dose baseline [6]: 100.0% | Serum calcium level as percent of pre-dose baseline (concentration 83 ng/ml, 1 hour): 69.7% | Serum calcium level as percent of pre-dose baseline [7]: 82.8% | Serum calcium level as percent of pre-dose baseline [8]: 83.9% | Serum calcium level as percent of pre-dose baseline [9]: 81.0% | Serum calcium level as percent of pre-dose baseline [1]: 100.0% | Serum calcium level as percent of pre-dose baseline [2]: 69.1% | Serum calcium level as percent of pre-dose baseline [3]: 62.7% | Serum calcium level as percent of pre-dose baseline [4]: 77.2% | Serum calcium level as percent of pre-dose baseline [5]: 86.2%

AGNLSTAMLGKLSQELHKGQTYPQTAIGVGAP-NH2 [Peptide No. 17]
Serum calcium level as percent of pre-dose baseline [10]: 100.0% | Serum calcium level as percent of pre-dose baseline [11]: 77.6% | Serum calcium level as percent of pre-dose baseline [12]: 71.5% | Serum calcium level as percent of pre-dose baseline [13]: 79.7% | Serum calcium level as percent of pre-dose baseline [14]: 83.2%

AGNLSTAMLGKLSQELHKQTYPQTAIGVGAP-NH2 [Peptide No. 15]
Serum calcium level as percent of pre-dose baseline [10]: 100.0% | Serum calcium level as percent of pre-dose baseline [11]: 75.5% | Serum calcium level as percent of pre-dose baseline [12]: 67.5% | Serum calcium level as percent of pre-dose baseline [13]: 80.6% | Serum calcium level as percent of pre-dose baseline [14]: 75.3%

CC[C@H](C)[C@H](NC(=O)[C@H](C)NC(=O)[C@@H](NC(=O)[C@H](CCC(N)=O)NC(=O)[C@@H]1CCCN1C(=O)[C@H](Cc1ccc(O)cc1)NC(=O)[C@@H](NC(=O)[C@H](CCC(N)=O)NC(=O)[C@H](CC(C)C)NC(=O)[C@H](CCCCN)NC(=O)[C@H](Cc1c[nH]cn1)NC(=O)[C@H](CC(C)C)NC(=O)[C@H](CCC(=O)O)NC(=O)[C@H](CCC(N)=O)NC(=O)[C@H](CO)NC(=O)[C@H](CC(C)C)NC(=O)[C@H](CCCCN)NC(=O)CNC(=O)[C@H](CC(C)C)NC(=O)[C@H](CC(C)C)NC(=O)[C@@H]1CSSC[C@H](N)C(=O)NCC(=O)N[C@@H](CC(N)=O)C(=O)N[C@@H](CC(C)C)C(=O)N[C@@H](CO)C(=O)N[C@@H]([C@@H](C)O)C(=O)N1)[C@@H](C)O)[C@@H](C)O)C(=O)NCC(=O)N[C@H](C(=O)NCC(=O)N[C@@H](C)C(=O)N1CCC[C@H]1C(N)=O)C(C)C [Peptide No. 13] (H-CGNLSTCLLGKLSQELHKLQTYPQTAIGVGAP-NH2; disulfide 1-7)
Serum calcium level as percent of pre-dose baseline [6]: 100.0% | Serum calcium level as percent of pre-dose baseline (concentration 83 ng/ml, 1 hour): 68.9% | Serum calcium level as percent of pre-dose baseline [7]: 70.5% | Serum calcium level as percent of pre-dose baseline [8]: 84.4% | Serum calcium level as percent of pre-dose baseline [9]: 86.8% | Serum calcium level as percent of pre-dose baseline [1]: 100.0% | Serum calcium level as percent of pre-dose baseline [2]: 71.3% | Serum calcium level as percent of pre-dose baseline [3]: 62.7% | Serum calcium level as percent of pre-dose baseline [4]: 58.3% | Serum calcium level as percent of pre-dose baseline [5]: 61.8%
